Experimental findings from article PMC6934184, “Selective DNA-PKcs inhibition extends the therapeutic index of localized radiotherapy and chemotherapy” (The Journal of Clinical Investigation, 2019) are described below.

This assay deals with T1, GRK1 (Homo sapiens, UniProt Q15835).
T1 construct: purchased Thermo Fisher Scientific (Life Technologies) SelectScreen
The assay can be described thus: SelectScreen LanthaScreen. Particulars: read-out: % displacement. The format is binding. A digest of the protocol: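 Percent values come from Thermo SelectScreen profiling of NU5455, combining activity and binding assays. CSF1R was run in Z'LYTE format at Km app ATP, and CAMK1 in Adapta format with ATP listed at 10.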
(In TR-FRET formats the signal depends on donor and acceptor labels being close together.)

T1 sequence (Q15835 whole entry): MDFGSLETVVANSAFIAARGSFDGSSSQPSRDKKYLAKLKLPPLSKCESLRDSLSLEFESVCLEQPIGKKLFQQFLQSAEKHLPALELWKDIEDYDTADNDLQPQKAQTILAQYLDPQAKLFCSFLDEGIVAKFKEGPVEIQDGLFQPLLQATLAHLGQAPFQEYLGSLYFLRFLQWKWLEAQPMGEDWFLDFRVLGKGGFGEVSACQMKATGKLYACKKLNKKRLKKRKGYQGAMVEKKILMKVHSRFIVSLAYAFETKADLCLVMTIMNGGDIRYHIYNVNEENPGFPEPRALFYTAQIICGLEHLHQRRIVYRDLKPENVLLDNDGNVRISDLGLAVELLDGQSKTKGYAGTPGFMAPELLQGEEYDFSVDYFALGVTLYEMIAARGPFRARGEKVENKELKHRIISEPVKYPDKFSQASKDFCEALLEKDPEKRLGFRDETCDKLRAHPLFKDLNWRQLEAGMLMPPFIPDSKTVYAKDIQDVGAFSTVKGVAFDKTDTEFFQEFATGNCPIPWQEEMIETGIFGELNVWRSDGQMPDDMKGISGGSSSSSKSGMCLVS

Take `CN(C(=O)CN1CCOCC1)c1ccc2sc3c(-c4cccc5c(=O)cc(N6CC7CCC(C6)O7)oc45)cccc3c2c1` [NU5455]: the inhibition at 1 µM was 1.3%.
